Experimental data from PubChem BioAssay (NCI).
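Abbreviation: GI50, concentration required for 50% inhibition of growth. TGI is the concentration that stops growth completely.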

Legend:
Experiment in all cases: NCI-60 cell line screen, 384-well format
M14 melanoma = tested on: M14 melanoma
LOX IMVI melanoma = tested on: LOX IMVI melanoma
NCI-H322M lung = tested on: NCI-H322M lung
786-0 renal = tested on: 786-0 renal
U251 glioblastoma = tested on: U251 glioblastoma
ACHN renal = tested on: ACHN renal
SF-268 CNS = tested on: SF-268 CNS
MDA-MB-468 breast = tested on: MDA-MB-468 breast
TK-10 renal = tested on: TK-10 renal
HCC-2998 colon = tested on: HCC-2998 colon
SK-OV-3 ovarian = tested on: SK-OV-3 ovarian
UO-31 renal = tested on: UO-31 renal
PC-3 prostate = tested on: PC-3 prostate
HOP-62 NSCLC = tested on: HOP-62 NSCLC
SK-MEL-5 melanoma = tested on: SK-MEL-5 melanoma
SK-MEL-2 melanoma = tested on: SK-MEL-2 melanoma
SNB-19 CNS = tested on: SNB-19 CNS
MOLT-4 leukemia = tested on: MOLT-4 leukemia
BT-549 breast = tested on: BT-549 breast
IGROV1 ovarian = tested on: IGROV1 ovarian
MCF7 breast = tested on: MCF7 breast
MALME-3M melanoma = tested on: MALME-3M melanoma
RXF 393 renal = tested on: RXF 393 renal
SW-620 colon = tested on: SW-620 colon
SF-295 CNS = tested on: SF-295 CNS
SK-MEL-28 melanoma = tested on: SK-MEL-28 melanoma
K-562 leukemia = tested on: K-562 leukemia
A549 NSCLC = tested on: A549 NSCLC
HL-60(TB) leukemia = tested on: HL-60(TB) leukemia
MDA-MB-435 melanoma = tested on: MDA-MB-435 melanoma
HOP-92 NSCLC = tested on: HOP-92 NSCLC
DU-145 prostate = tested on: DU-145 prostate
T-47D breast = tested on: T-47D breast
OVCAR-4 ovarian = tested on: OVCAR-4 ovarian
MDA-MB-231 breast = tested on: MDA-MB-231 breast
A498 renal = tested on: A498 renal
CCRF-CEM leukemia = tested on: CCRF-CEM leukemia
HCT-116 colon = tested on: HCT-116 colon
SR leukemia = tested on: SR leukemia
OVCAR-3 ovarian = tested on: OVCAR-3 ovarian
OVCAR-5 ovarian = tested on: OVCAR-5 ovarian
NCI-H460 NSCLC = tested on: NCI-H460 NSCLC
NCI-H226 lung = tested on: NCI-H226 lung
OVCAR-8 ovarian = tested on: OVCAR-8 ovarian
NCI-H522 lung = tested on: NCI-H522 lung
UACC-62 melanoma = tested on: UACC-62 melanoma
NCI/ADR-RES ovarian = tested on: NCI/ADR-RES ovarian
UACC-257 melanoma = tested on: UACC-257 melanoma
KM12 colon = tested on: KM12 colon
COLO 205 colon = tested on: COLO 205 colon
SN12C renal = tested on: SN12C renal
HT29 colon = tested on: HT29 colon
CAKI-1 renal = tested on: CAKI-1 renal
RPMI-8226 leukemia = tested on: RPMI-8226 leukemia
HCT-15 colon = tested on: HCT-15 colon
SF-539 CNS = tested on: SF-539 CNS
NCI-H23 lung = tested on: NCI-H23 lung

## COCCOCCOCCOCCOC(=O)OC[n+]1ccc(NC(=NCCCCCCOc2ccc(Cl)cc2)NC#N)cc1
M14 melanoma
  GI50: < 10 nM
  TGI: 18.9 nM
LOX IMVI melanoma
  GI50: < 10 nM
  TGI: < 10 nM
NCI-H322M lung
  GI50: < 10 nM
  TGI: < 10 nM
786-0 renal
  GI50: < 10 nM
  TGI: < 10 nM
U251 glioblastoma
  GI50: < 10 nM
  TGI: < 10 nM
ACHN renal
  GI50: < 10 nM
  TGI: < 10 nM
SF-268 CNS
  GI50: < 10 nM
  TGI: < 10 nM
MDA-MB-468 breast
  GI50: < 10 nM
  TGI: < 10 nM
TK-10 renal
  GI50: < 10 nM
  TGI: < 10 nM
HCC-2998 colon
  GI50: < 10 nM
  TGI: < 10 nM
SK-OV-3 ovarian
  GI50: < 10 nM
  TGI: < 10 nM
UO-31 renal
  GI50: < 10 nM
  TGI: < 10 nM
PC-3 prostate
  GI50: < 10 nM
  TGI: < 10 nM
HOP-62 NSCLC
  GI50: < 10 nM
  TGI: < 10 nM
SK-MEL-5 melanoma
  GI50: < 10 nM
  TGI: < 10 nM
SK-MEL-2 melanoma
  GI50: < 10 nM
  TGI: < 10 nM
SNB-19 CNS
  GI50: < 10 nM
  TGI: < 10 nM
MOLT-4 leukemia
  GI50: < 10 nM
  TGI: < 10 nM
BT-549 breast
  GI50: < 10 nM
  TGI: < 10 nM
IGROV1 ovarian
  GI50: < 10 nM
  TGI: < 10 nM
MCF7 breast
  GI50: < 10 nM
  TGI: < 10 nM
MALME-3M melanoma
  GI50: 25.3 nM
  TGI: 46.4 nM
RXF 393 renal
  GI50: < 10 nM
  TGI: < 10 nM
SW-620 colon
  GI50: < 10 nM
  TGI: < 10 nM
SF-295 CNS
  GI50: < 10 nM
  TGI: < 10 nM
SK-MEL-28 melanoma
  GI50: < 10 nM
  TGI: < 10 nM
K-562 leukemia
  GI50: < 10 nM
  TGI: < 10 nM
A549 NSCLC
  GI50: < 10 nM
  TGI: 19.4 nM
HL-60(TB) leukemia
  GI50: < 10 nM
  TGI: < 10 nM
MDA-MB-435 melanoma
  GI50: < 10 nM
  TGI: < 10 nM
HOP-92 NSCLC
  GI50: 21.6 nM
  TGI: 41.5 nM
DU-145 prostate
  GI50: < 10 nM
  TGI: 18.8 nM
T-47D breast
  GI50: < 10 nM
  TGI: < 10 nM
OVCAR-4 ovarian
  GI50: < 10 nM
  TGI: < 10 nM
MDA-MB-231 breast
  GI50: 15.2 nM
  TGI: 30.1 nM
A498 renal
  GI50: 25.3 nM
  TGI: 58.6 nM
CCRF-CEM leukemia
  GI50: < 10 nM
  TGI: < 10 nM
HCT-116 colon
  GI50: < 10 nM
  TGI: < 10 nM
SR leukemia
  GI50: 18.8 nM
  TGI: 33.3 nM
OVCAR-3 ovarian
  GI50: < 10 nM
  TGI: < 10 nM
OVCAR-5 ovarian
  GI50: < 10 nM
  TGI: < 10 nM
NCI-H460 NSCLC
  GI50: < 10 nM
  TGI: < 10 nM
NCI-H226 lung
  GI50: 77.9 nM
  TGI: 2960 nM
OVCAR-8 ovarian
  GI50: < 10 nM
  TGI: < 10 nM
NCI-H522 lung
  GI50: < 10 nM
  TGI: < 10 nM
UACC-62 melanoma
  GI50: < 10 nM
  TGI: < 10 nM
NCI/ADR-RES ovarian
  GI50: < 10 nM
  TGI: < 10 nM
UACC-257 melanoma
  GI50: < 10 nM
  TGI: 15.8 nM
KM12 colon
  GI50: < 10 nM
  TGI: < 10 nM
COLO 205 colon
  GI50: < 10 nM
  TGI: < 10 nM
SN12C renal
  GI50: < 10 nM
  TGI: < 10 nM
HT29 colon
  GI50: < 10 nM
  TGI: < 10 nM
CAKI-1 renal
  GI50: < 10 nM
  TGI: < 10 nM
RPMI-8226 leukemia
  GI50: < 10 nM
  TGI: < 10 nM
HCT-15 colon
  GI50: < 10 nM
  TGI: < 10 nM
SF-539 CNS
  GI50: < 10 nM
  TGI: < 10 nM
NCI-H23 lung
  GI50: < 10 nM
  TGI: < 10 nM
